This test addresses T1, human TAS1R2-WT/TAS1R3-T716M (Homo sapiens, UniProt Q7RTX0+Q8TE23, T716M).
T1 construct: expressed in transfected cells; host or cells: HEK293T stably expressing Gα16gust44
T1 sequence (Q8TE23 20-839): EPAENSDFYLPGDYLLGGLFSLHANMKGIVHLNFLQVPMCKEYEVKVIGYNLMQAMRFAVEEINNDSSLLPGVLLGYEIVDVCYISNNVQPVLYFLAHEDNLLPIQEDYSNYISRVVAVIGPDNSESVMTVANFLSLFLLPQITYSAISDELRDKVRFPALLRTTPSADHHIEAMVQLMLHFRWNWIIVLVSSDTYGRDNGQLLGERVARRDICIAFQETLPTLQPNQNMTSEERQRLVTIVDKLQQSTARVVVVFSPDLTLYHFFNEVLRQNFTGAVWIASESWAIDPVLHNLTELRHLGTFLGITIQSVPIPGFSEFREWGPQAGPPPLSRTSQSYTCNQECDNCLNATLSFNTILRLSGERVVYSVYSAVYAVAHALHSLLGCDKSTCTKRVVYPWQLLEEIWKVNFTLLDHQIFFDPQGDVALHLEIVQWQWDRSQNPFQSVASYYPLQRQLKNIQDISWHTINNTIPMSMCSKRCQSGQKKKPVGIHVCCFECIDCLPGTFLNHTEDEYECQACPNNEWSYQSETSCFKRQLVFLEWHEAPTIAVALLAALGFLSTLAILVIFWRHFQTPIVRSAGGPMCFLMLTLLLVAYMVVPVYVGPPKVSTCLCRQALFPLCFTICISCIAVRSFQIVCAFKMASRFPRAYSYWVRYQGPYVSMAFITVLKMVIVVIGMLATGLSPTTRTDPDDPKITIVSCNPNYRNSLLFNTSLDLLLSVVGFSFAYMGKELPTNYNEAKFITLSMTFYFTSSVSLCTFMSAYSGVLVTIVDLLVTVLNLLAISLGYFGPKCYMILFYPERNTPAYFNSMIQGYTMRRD
T1 sequence (Q7RTX0 21-852 T716M): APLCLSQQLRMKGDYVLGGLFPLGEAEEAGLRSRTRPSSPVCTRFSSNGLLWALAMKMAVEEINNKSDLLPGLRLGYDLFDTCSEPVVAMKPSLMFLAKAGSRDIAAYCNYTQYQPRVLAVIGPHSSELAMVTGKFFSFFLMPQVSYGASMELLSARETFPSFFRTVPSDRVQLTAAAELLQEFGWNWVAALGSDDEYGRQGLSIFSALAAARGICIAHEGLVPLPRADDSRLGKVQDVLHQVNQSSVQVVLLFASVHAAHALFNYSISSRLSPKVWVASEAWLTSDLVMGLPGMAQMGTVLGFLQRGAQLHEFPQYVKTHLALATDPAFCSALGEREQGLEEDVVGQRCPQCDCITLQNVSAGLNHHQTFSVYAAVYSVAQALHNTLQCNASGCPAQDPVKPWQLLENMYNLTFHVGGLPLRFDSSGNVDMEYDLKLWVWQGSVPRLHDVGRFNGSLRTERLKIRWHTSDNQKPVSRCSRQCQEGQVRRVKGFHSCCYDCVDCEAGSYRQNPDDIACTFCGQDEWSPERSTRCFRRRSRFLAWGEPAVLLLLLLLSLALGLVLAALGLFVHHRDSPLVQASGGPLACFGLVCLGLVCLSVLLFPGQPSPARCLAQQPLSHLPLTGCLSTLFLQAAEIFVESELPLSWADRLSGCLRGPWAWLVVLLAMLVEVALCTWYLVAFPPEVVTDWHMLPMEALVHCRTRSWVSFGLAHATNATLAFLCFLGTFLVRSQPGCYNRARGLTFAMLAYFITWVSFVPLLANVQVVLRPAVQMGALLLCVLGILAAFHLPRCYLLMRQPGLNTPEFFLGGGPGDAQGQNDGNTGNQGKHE
The test can be described thus: Calcium mobilisation assay, TAS1R2-WT with TAS1R3 variant T716M. It counts as cell-based. The note with it: for Max ΔF/F0: maximal signal amplitude. The text has this: The coding sequences for TAS1R2 and TAS1R3 were commercially synthesised, and the human codon was optimised for expression in human cells. The coding sequences of human TAS1R2 and TAS1R3 were subcloned and inserted into the mammalian expression vectors pcDNA6/myc-HisA and pcDNA4/myc-HisA (Invitrogen; Thermo Fisher Scientific; Illkirch, France) between the EcoRI and NotI restriction sites, generating the plasmids pcDNA6-TAS1R2 and pcDNA4-TAS1R3, respectively. To increase protein expression in mammalian cells, an upstream start codon was used, which was a sequence called MAX, corresponding to the QBI SP163 element also described in pcDNA4-HisMax (Invitrogen; Thermo Fisher Scientific; Illkirch, France). To measure the expression level of the receptor by immunohistochemistry, we used the FLAG sequence ([…]) in the C-terminal position, which encodes the FLAG tag epitope. SNP variants of TAS1R2 and TAS1R3 were constructed based on […], respectively, using site-directed mutagenesis (Genewiz; Leipzig, Germany).
The HEK293T cells were kindly provided by Jay P. Slack (Givaudan Flavors Corporation; Cincinnati, OH, USA). HEK293T cells stably transfected with Gα16gust44 [43, 67] were seeded in poly-D-lysine-coated clear-bottom black 96-well plates (0.35 × 10^5 cells/well) in high-glucose DMEM supplemented with 2 mM GlutaMAX, 10% dialysed foetal bovine serum with penicillin/streptomycin and G418 (400 μg/mL) at 37 °C and 6.3% CO2 in a humidified atmosphere as previously reported. […] As a negative control, HEK293T cells were mock-transfected with the empty expression vector. After a further 24 h of incubation, the HEK293T cells were washed with C1 buffer (130 mM NaCl, 5 mM KCl, 10 mM HEPES pH 7.4 and 2 mM CaCl2). The 96-well plates containing the cells were then stimulated with sweet-tasting compounds. […] Different concentration ranges were tested depending on the sweet compound injected. The Ca^2+ changes were expressed as fractional changes in fluorescent light intensity: ΔF/F = (F − F0)/F0, where F was the fluorescent light intensity at each point, and F0 was the value of emitted fluorescent light prior to stimulus application. To calculate dose–response relationships, the changes in fluorescence upon stimulus application were averaged, mock-subtracted and baseline-corrected. The dose–response data obtained were adjusted using a 4-parameter logistic equation. The half-maximal effective concentrations (EC50 values) and maximal signal amplitudes were calculated using SigmaPlot software (version 15.0) (Systat Software; San Jose, CA, USA).
For in vitro calcium mobilisation assay performed on hTAS1R2-SNPs, hTAS1R3-SNPs and mTAS1R3-I60T, 6 to 7 concentrations were tested for each sweet compound, plus buffer alone. All concentration–receptor combinations were measured in duplicate, and each experiment was repeated at least 4 times (8 wells/concentration). Results were expressed for each concentration as ΔF/F mean ± SEM and represented as dose–response curves.

Where two headings read alike, the source gives them in different places. No end group written: not given here.

Consider `OC[C@H]1O[C@H](O[C@]2(CCl)O[C@H](CCl)[C@@H](O)[C@@H]2O)[C@H](O)[C@@H](O)[C@H]1Cl` [Sucralose], for which the “R1 = Variant EC50/WT EC50” value amounted to 1.5 and the “Max ΔF/F0” value came out at 0.47 ± 0.02. Also, for the setting “read-out: EC50”, the concentration giving a half-maximal response (EC50) was determined as 161 ± 14 µM.
In the same order, the values of `C[C@H](CC[C@@H](O[C@@H]1O[C@H](CO[C@@H]2O[C@H](CO)[C@@H](O)[C@H](O)[C@H]2O)[C@@H](O)[C@H](O)[C@H]1O[C@@H]1O[C@H](CO)[C@@H](O)[C@H](O)[C@H]1O)C(C)(C)O)[C@H]1CC[C@@]2(C)[C@@H]3CC=C4[C@@H](CC[C@H](O[C@@H]5O[C@H](CO[C@@H]6O[C@H](CO)[C@@H](O)[C@H](O)[C@H]6O)[C@@H](O)[C@H](O)[C@H]5O)C4(C)C)[C@]3(C)[C@H](O)C[C@]12C` [Mogroside V, mogroside V] are 1.2, 1.01 ± 0.01 and 36.4 ± 1 µM.
In the same order, the values of `COC(=O)[C@H](Cc1ccccc1)NC(=O)[C@H](CC(=O)O)NCCC(C)(C)C` [Neotame] are 1.1, 0.54 ± 0.01 and 1.3 ± 0.06 µM.
Turning to “brazzein (QDKCKKVYENYPVSKCQLANQCNYDCKLDKHARSGECFYDEKRNLQCICDYCEY; ends and bridges not checked; cysteine pairing not given here; UniProt P56552 1-54, looked up) [sweet-tasting protein obtained by recombinant production using the yeast Pichia pastoris]”, the “R1 = Variant EC50/WT EC50” value was determined as 1.0 and the “Max ΔF/F0” value is listed as 0.94 ± 0.04. Besides, under “brazzein”, the EC50 was determined as 112.6 ± 13.6 µg/mL.
Regarding `C=C(C)[C@@H]1CC=C(/C=N/O)CC1` [Perillartine, perillartine], the “R1 = Variant EC50/WT EC50” value is recorded as 1.6 and the “Max ΔF/F0” value came to 1.73 ± 0.33. Besides, the EC50 (read-out: EC50) is 21.6 ± 11.4 µM.
In the same order, the values of `CC1=CC(=O)NS(=O)(=O)O1` [Acesulfame K, acesulfame K] are 1.2, 0.30 ± 0.01 and 739 ± 72 µM.
In the case of `C=C1C[C@@]23CC[C@H]4[C@@](C)(CCC[C@@]4(C)C(=O)O[C@@H]4O[C@H](CO)[C@@H](O)[C@H](O[C@@H]5O[C@H](CO)[C@@H](O)[C@H](O)[C@H]5O)[C@H]4O[C@@H]4O[C@H](CO)[C@@H](O)[C@H](O)[C@H]4O)[C@@H]2CC[C@]1(O[C@@H]1O[C@H](CO)[C@@H](O)[C@H](O[C@@H]2O[C@H](CO)[C@@H](O)[C@H](O)[C@H]2O)[C@H]1O[C@@H]1O[C@H](CO)[C@@H](O)[C@H](O)[C@H]1O)C3` [Rebaudioside M, rebaudioside M], the “R1 = Variant EC50/WT EC50” value is 0.8 and the “Max ΔF/F0” value worked out at 1.10 ± 0.06. Further, the EC50 (read-out: EC50) was 30.7 ± 4 µM.
With `O=S(=O)(O)NC1CCCCC1` [Cyclamate, cyclamate], the EC50 (read-out: EC50) amounted to 1860 ± 45 µM.
With `COc1ccc(CCC(=O)c2c(O)cc(O[C@@H]3O[C@H](CO)[C@@H](O)[C@H](O)[C@H]3O[C@@H]3O[C@@H](C)[C@H](O)[C@@H](O)[C@H]3O)cc2O)cc1O` [NHDC, neohesperidin dihydrochalcone], the “R1 = Variant EC50/WT EC50” value turned out to be 1.1 and the “Max ΔF/F0” value was determined as 0.84 ± 0.09. The EC50 (read-out: EC50) came to 55.4 ± 18.4 µM.
As to thaumatin, the “R1 = Variant EC50/WT EC50” value is 1.0 and the “Max ΔF/F0” value is 0.76 ± 0.04. Besides, under “read-out: EC50”, the half-maximal effective concentration (EC50) stood at 10 ± 0.5 µM.

The values above are taken from article PMC11945486, “TAS1R2/TAS1R3 Single-Nucleotide Polymorphisms Affect Sweet Taste Receptor Activation by Sweeteners: The SWEET Project” (Nutrients, 2025).
